The results in this text go back to patent US20200087258A1, “INHIBITOR OF CITRATE TRANSPORTER AND THEIR USE IN THERAPY” (Eternygen GmbH, priority 2017, published 2020).

Some results are limits rather than exact numbers.

By IC50 is commonly meant the concentration that gives 50% inhibition. Read a high IC50 as weaker potency.

The target of the assay is T1, GLUT1 (Homo sapiens, UniProt P11166).
T1 construct: Huh-7 cells which endogenously express GLUT1; endogenous in cells; host or cells: Huh-7
T1 sequence (P11166 1-492): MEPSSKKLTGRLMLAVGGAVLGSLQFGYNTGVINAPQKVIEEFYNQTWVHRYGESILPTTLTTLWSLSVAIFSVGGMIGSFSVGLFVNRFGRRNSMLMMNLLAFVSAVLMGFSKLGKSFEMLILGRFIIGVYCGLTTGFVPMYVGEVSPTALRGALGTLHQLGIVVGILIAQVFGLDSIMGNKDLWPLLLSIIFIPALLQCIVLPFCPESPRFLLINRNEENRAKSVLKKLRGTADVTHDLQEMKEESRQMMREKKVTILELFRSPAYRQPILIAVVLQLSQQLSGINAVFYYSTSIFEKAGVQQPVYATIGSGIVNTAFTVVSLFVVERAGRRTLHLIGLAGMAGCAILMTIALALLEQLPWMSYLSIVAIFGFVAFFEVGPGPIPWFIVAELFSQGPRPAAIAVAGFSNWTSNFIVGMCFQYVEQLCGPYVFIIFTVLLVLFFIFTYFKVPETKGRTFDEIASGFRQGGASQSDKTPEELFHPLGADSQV
Kind of assay: 3H-glucose uptake counter assay in Huh7 cells endogenously expressing GLUT1. The assay is classed as cell-based. As to conditions: endogenous GLUT1. Here is the method: The compound was obtained by screening of a library containing more than 50,000 lead-like compounds and fragments. The library was tested using a functional citrate uptake assay with HEK293 cells overexpressing recombinant human INDY. The following hit confirmation was conducted in the same assay system. To confirm the activity of selected compounds on the target INDY another cell assay was conducted. In this assay system citrate uptake was measured using HepG2 cells which endogenously express INDY. Furthermore selectivity of selected compounds was tested for two other transporters in different assay systems. The first transporter was the glutamate transporter GLT-1 tested in a glutamate uptake assays using HEK293 cells overexpressing recombinant human GLT-1. The second transporter was the glucose transporter GLUT1 tested in a glucose uptake assay using Huh-7 cells which endogenously express GLUT1. Compounds were considered to be selective with an at least 5-fold higher activity for INDY than for the other two transporters.
Cells were maintained in cell medium using cell culture grade flasks (CellSTACK Corning, 500 cm2 dishes or T175 depending on cell number). The selection antibiotic and G418 (800 μg/ml) was added during cultivation but not for seeding into assay plates. For splitting, cells were washed with PBS (w/o Ca2+, Mg2+, phenol red) and detached with Trypsin/EDTA. Throughout cultivation cells were kept sub-confluent. Detached cells (50,000 cells/well) were seeded in 96-well plates (white, clear bottom from Corning #655098) and incubated over night before usage in the assay. The following media were used. For HEK293 cells expressing INDY MEM (PAA)+10% FCS+1×P/S+2 mM L-Gln; for HEK293 cells expressing GLT-1 DMEM (Gibco)+10% FCS+400 µg/ml G418; for Huh7 cells DMEM (Gibco)+10% FCS+2 mM L-Gin (+1×P/S); for HepG2 cells MEM (PAA, Cat # E15-024)+10% FCS+2 mM L-Gin+1×NEAA+1 mM Na-Pyruvat […]
Glucose uptake in Huh7 cells was measured as a counter assay. […] After 20 min incubation at RT plates were measured using TopCount system, Perkin Elmer. […]

In the case of `O=C(NCc1ccccc1F)C1CCN(S(=O)(=O)/C=C/c2ccccc2)CC1` [Example 5], the IC50 was > 50 µM.
